For 90 molecules, melting point results are on record in a melting point compilation (Tetko et al.; mined from patent text by program, amines drawn as free bases though some values may be those of a salt).

Bounds are passed on as bounds.

The molecule `COc1ccc(C(=O)OC2C(O)C=C(C)C(=O)CC2(C)C)cc1OC` (stereo not given) yielded a melting point of 150 to 152 °C. For `Nc1nc2nc(N3CCNCC3)nc(N)c2nc1-c1ccccc1` the value was 233 to 236 °C.

Consider `CCc1nc2cnc3cc(Br)ccc3c2n1CC1CCN(C(=O)OC(C)(C)C)CC1`, for which the melting point was in the range of 208 to 209 °C. As for `O=c1oc2cccc(O)c2c2ccc([N+](=O)[O-])cc12`, the melting point is above 260 °C. Then `COc1cc2c(-c3ccnc(NN)c3)c(CO)c(CO)cc2cc1OCc1ccccc1`, with 155 to 157 °C; and `CCCCCCCN(CC1(c2ccccc2)CCCC1)C(=O)Nc1ccc(F)cc1F`, with 88 to 90 °C. For `Clc1cc(Br)c2c(c1)COCO2` the value was 108 to 110 °C; for `COc1nc2ccccc2nc1NC(=O)N1CCC(c2ccccc2)(c2ccccc2)CC1`, 202 to 204 °C; for `COC(=O)c1nccnc1Br`, 43 to 45 °C. Then `O=C(c1ccc(-c2ccn(C(=O)c3ccc(Cl)cc3Cl)n2)cc1)N1Cc2cccn2Cc2ccccc21`, with 180 to 182 °C; and `CCCCOc1c(-c2cc(C=CC(=O)O)ccc2OC)cc(C(C)(C)C)cc1C(C)(C)C`, with 204 to 206 °C. `N#Cc1ccc(Oc2ccccc2[N+](=O)[O-])cc1C#N`: the melting point amounted to 127 °C. On to `O=C(O)c1ccc(-c2cn(-c3ccc(OC(F)(F)F)cc3)cn2)cc1`, for which the melting point is 230 °C. On to `Cc1cc(-n2nc(C#N)cc2-c2ccc(S(C)(=O)=O)cc2)ccc1Cl`, for which the melting point lay in the range of 163 to 164 °C.

Consider `CCCc1cc(Nc2ccn(-c3ccccc3)n2)cc(CCC)c1OC(C)=O`, for which the melting point fell in the range of 71 to 74 °C. `COc1ccc(COc2ccc(N)cc2)cc1` gave a melting point of 118 to 120 °C.

`CC1Cc2c(c3cccnc3n(-c3cccc(C(F)(F)F)c3)c2=O)O1` (stereo not given) showed a melting point of 205 to 207 °C. For `CC(C)c1ccc(C(=O)NC/C=C/c2ccccc2)cc1` the value was 142 °C; for `O=C(Nc1ccc(Cl)cc1)Oc1ccc2c(c1)NCCC2`, 118 °C; for `Cc1ccc(C=CC(=O)N2CCc3c([nH]c4ccccc34)C2c2ccc3c(c2)OCO3)cc1` (stereo not given), 240 °C. For `COc1ccc(C(=O)Nc2c(Cl)cncc2Cl)c2c1OCC2CC(=O)NCc1ccc(Cl)cc1` (stereo not given) the value was 283 to 286 °C; for `CCCOc1nc2ccc(Br)cc2c(=O)n1CCC`, 57 to 59 °C. Then `COc1ccc(CONC(=O)[C@@H](C(C)C)N(Cc2cccnc2)S(=O)(=O)c2ccc(OC)cc2)cc1`, with 45 to 53 °C; and `CC(C)(C)OC(=O)NC(Cc1ccc(CO)cc1)c1cccnc1` (stereo not given), with 130 °C. The molecule `CC(C)OCCn1c(C2CCN(CCc3ccc(C(C)(C)C)cc3)CC2)nc2ccccc21` showed a melting point of 115 to 117 °C.

Consider `CC1CC(=O)NN=C1c1ccc(N2CCNCC2)c(N)c1` (stereo not given), for which the melting point was 244 to 245 °C.

Turning to `CC(C)(CCP(=O)(O)O)c1ccc(O)cc1`, the melting point lay within 192 to 195 °C.

`COc1nc2ccccc2c2c1ncn2CC(C)C`: the melting point is 111 to 114 °C. `CC1(C)CCC(C)(C)c2cc(-c3cc(-c4ccc(C(=O)O)cc4)ccc3OCCCCO)ccc21`: the melting point was found to be 235 °C. Then `CN1CC(CNN)CC2c3cccc4[nH]cc(c34)CC21` (stereo not given), with 171 to 172 °C. For `CC(=Cc1ccc(-c2ccccc2)s1)c1ccccc1` the value was 115 to 125 °C; for `CCOC(=O)Cn1cc2c(n1)-c1ccccc1N(C(=O)c1ccc(NC(=O)c3ccc(Cl)cc3Cl)cc1)CC2`, 164 to 167 °C; for `COc1cccc(-c2cc(C(C)(C)C)c(O)c(C(C)(C)C)c2)c1`, 96 to 98 °C. Then `CC(C)(NC(=O)C(O)C(N)Cc1ccc(S(C)(=O)=O)cc1)C(=O)O` (stereo not given), with 220 to 222 °C; and `COc1cc2c(cc1C(O)c1ccccc1)C=C2C(=O)O` (stereo not given), with 143 to 146 °C. The molecule `CSc1ccc(C2=C(Cl)C(=O)OC2)cc1` displayed a melting point of 156 to 158 °C.

Regarding `Cc1cccc2sc(=O)[nH]c12`, the melting point lay in the range of 207 to 208 °C. `O=C1Cc2c([nH]c3ccc(I)cc23)-c2ncccc2N1` came in with a melting point above 330 °C.

As for `O=C1c2c(Cl)cccc2OCN1CCO[N+](=O)[O-]`, the melting point was in the range of 98 to 100 °C. For `CC(=O)Nc1cccc(NC(=O)c2cccc(S(=O)(=O)N3CCCCCC3)c2)c1` the value was 117 to 120 °C. Then `O=c1c2c(N3CCNCC3)cc(Cl)cc2n(Cc2ccccc2)c(=O)n1Cc1ccccc1Cl`, with 120 to 125 °C; and `CC1(C)C2CC=C(c3ccc(C(=O)N4Cc5cccn5Cc5ccccc54)cc3)C1C2` (stereo not given), with 118 to 119 °C; and `Cn1ncc(/C=C/C(=O)Nc2ccc(OCc3cscn3)cc2)c1-c1ccc(F)cc1`, with 171 to 172 °C. For `COc1nc(C)nc(NC(=O)NS(=O)(=O)Cc2ccccc2-c2nnc(SC)o2)n1` the value was 175 to 177 °C. Molecule `C=CCOP1(=S)OCc2cc(C)cnc2O1` (stereo not given) gave a melting point of 79 to 80 °C. Molecule `O=C(Nc1cccc(S(=O)(=O)CCO)c1)c1cnn2c(C(F)(F)F)cc(-c3ccc(C(F)(F)F)cc3)nc12` gave a melting point of 237 °C. Then `O=C(O)CCC(=O)NCC(=O)N1c2ccccc2N(Cc2ccccc2)C(=O)[C@H]2CCC[C@H]21` (relative stereo), with 148 to 151 °C; and `CC(C)(C)OC(=O)CON=C(C(=O)OC(c1ccccc1)c1ccccc1)c1ncsn1`, with 139 to 141 °C. Then `O=C1CSC=C(c2ccccc2)N1`, with 150 to 155 °C; and `CC(C)c1nc2c(c3c1[nH]c1ccccc13)C(=O)C(C)(C)CC2`, with 182 to 184 °C. For `CCC(C)(C)Nc1c(NCc2ccc(F)cc2Cl)c(=O)c1=O` the value was 201 to 203 °C. In turn, `O=[N+]([O-])c1ccccc1NC1CCCCC1` came in with a melting point of 105 to 107 °C. On to `CC(=O)Nc1c(C(=O)c2ccco2)[nH]c2cc(Cl)ccc12`, for which the melting point lay in the range of 227 to 228 °C.

`N#Cc1ccccc1Oc1cc(-n2cccc2)ccc1O`: the melting point was 120 to 122 °C. For `CC(C)(C)C(=O)OCOc1ccc(C=O)cc1OC(=O)C(C)(C)C` the value was 58 to 60 °C. For `Nc1c(F)c(Oc2ccc(Cl)c(Cl)c2)nc(C(=O)O)c1Cl` the value was 156 to 160 °C; for `CS(=O)(=O)c1ccc(C(=O)c2cc(-c3cccnc3)c(N3CCOCC3)s2)cc1`, 147 °C.

With `CC(C)=CCOc1ccc(C(=O)C=Cc2ccc(F)cc2)c(O)c1`, the melting point is 96 to 97 °C.

Regarding `Cc1ccc(C(NC(N)=S)c2ccccc2)cc1` (stereo not given), the melting point lay in the range of 167 to 168 °C. For `CNC(N)=Nc1nc(-c2cccc(CNC(C)=O)n2)cs1` the value was 181 °C. On to `O=S(=O)(c1ccccc1)c1ccc2cc[nH]c2c1`, for which the melting point lay in the range of 141 to 144 °C. For `CC(C)N(C)c1cccc([N+](=O)[O-])c1C#N` the value was 70 to 72 °C; for `CSC(SC)=C(C#N)C(=O)N(C)C`, 45 to 46 °C; for `FC(F)(F)c1cc(CNCc2cc3ccccc3nc2N2CCN(CC3CCCCC3)CC2)cc(C(F)(F)F)c1`, 54 to 55 °C. The molecule `CN1CCN(CC2=NC(NC(=O)Nc3cccc(C#N)c3)C(=O)N(CC(=O)N(C)c3ccccc3)c3ccccc32)CC1` (stereo not given) gave a melting point of 152 to 155 °C. For `CN1c2ccc(-c3cccc4ccccc34)cc2S(=O)(=O)c2cc(-c3cccc4ccccc34)ccc21` the value was 221 to 225 °C; for `Cc1ccc(-c2cc(Cl)c3ccccc3n2)cc1Cl`, 115 to 116 °C; for `COc1cccc(OC2COc3ccc(O)cc3C2O)c1` (stereo not given), 187 to 189 °C.

`OCCCc1ccc2ccccc2c1O` showed a melting point of 85 to 86 °C. `O=C(CN1C(=O)c2ccccc2C1=O)NNC(=O)c1ncn2c1[C@@H]1CCN1C(=O)c1sccc1-2` displayed a melting point above 260 °C.

On to `COC(=O)CCc1nc(CCc2ccc(CC(=O)OC)cc2)ccc1O`, for which the melting point fell in the range of 90 to 91 °C. Then `CCC(=O)c1ccc(NC(C)=O)cc1`, with 169 to 170 °C. For `Cc1ccc(C=Nc2cc(F)ccc2C(=O)O)cc1` the value was 144 to 145 °C; for `NC1=CC=C(c2ccccc2)CC1(Cl)C(O)(C1CC1)C1CC1` (stereo not given), 90 to 92 °C.

Take `COc1ccc(-c2nc(C)c(C(=O)Nc3nnn[nH]3)s2)cc1`: the melting point lay within 275 to 278 °C. Then `O=c1nc(-c2cccc(Br)c2)sc2ccccc12`, with 162 °C. For `CN(CCCNc1ncc(Cc2ccc(F)cc2)c(=O)[nH]1)c1ccccn1` the value was 70 °C; for `COC(=O)c1cscc1NC(=O)C(F)Cl` (stereo not given), 51 to 54 °C; for `COc1ccc(S(=O)(=O)c2ccnc(C)c2C)cc1`, 84 to 85 °C.

`Cc1nc(C)c(C(C)(O)c2ccoc2)o1` (stereo not given) returned a melting point of 93 to 95 °C. Then `COc1cccc(OC)c1-c1cc(C(=O)NC2(C(=O)O)C3CC4CC(C3)CC2C4)nn1-c1ccc(NC=O)c2ccccc12` (stereo not given), with 270 °C. Then `CCCNc1nc(OCC)nc2cscc12`, with 140 to 142 °C; and `COC(=O)NN=C(C)c1nc(-c2ccccc2)[nH]c1C`, with 201 to 202 °C. For `C1=C(OCc2ccccc2)CCN(Cc2nc3ccccc3[nH]2)C1` the value was 170 to 172 °C; for `CC(C)N(C(=O)n1oc(=O)[nH]c1=O)c1ccccc1`, 116 to 117 °C; for `NS(=O)(=O)c1cccc(C(=O)Cl)c1`, 123 °C. In turn, `CC(=O)c1ccc2cc(N3CCNCC3)ccc2c1` returned a melting point of 170 to 172 °C. For `Cn1c(SCSC#N)nc2ccccc2c1=O` the value was 118 to 121 °C; for `COC(=O)/C=C/c1ccc(-c2nc3c(=O)n(CC4CCCCC4)c(=O)n(CC4CCCCC4)c3[nH]2)cc1`, above 270 °C; for `CC(C)Sc1cc(SC(C)C)c2ccc3c(SC(C)C)cc(SC(C)C)c4ccc1c2c43`, 108 °C.

The melting point is the temperature of the solid-liquid transition.
